Reference: US10759777B2, “Carbazole-containing amides, carbamates, and ureas as cryptochrome modulators” (Synchronicity Pharma, Inc., priority 2014, dated 2020)

Test system: core clock genes (Per2, Bmal1, Cry1, Cry2) and gluconeogenic genes (Pckl, G6Pc) in liver
Assay: 24 hour gene expression studies, liver mRNA by RT-qPCR
Type: in vivo, mouse
Details: 50 mg/kg PO BID
From the text: Male C57Bl/6J DIO mice were purchased at 17 weeks of age (The Jackson Laboratory, Sacramento, Calif.) and acclimated for a 2 week period before being used for the experiment. Overall group size was 15 per treatment, divided into 5 time-points to give a final group size of 3 mice.
In total, each mouse received 5 doses of compound over the course of the experiment. Mice were weighed and randomly assigned to each treatment based on weight the evening before the commencement of the study. Beginning on Day 3 at 3:00 PM, a group of animals from the vehicle and Compound 72-treated groups were euthanized using CO2 asphyxiation, 50 mg of liver, epididymal fat, and skeletal muscle, respectively, were excised and placed in tube containing 500 μl of RNALater. This procedure took place for the remainder of the time-point groups at their given harvest times. Plasma samples were also taken for each animal and frozen, to be used for later measurement of compound levels.
E.Z.N.A.® HP Total RNA Isolation Kits (R6812-01 and the protocol described in the Manual, Revised 2010) were utilized to prepare and isolate RNA from the liver samples. To prepare the RNA samples, 10-30 mg of sample was removed from RNA-Later and placed in a 1.5 ml microfuge tube. GTC lysis buffer (700 μl) was added to the tissue, which was homogenized with a rotor-stator homogenizer (e.g. Tissue-Tearor, Model #985370 BioSpec Products with 4.5 mm probe, Cat. #985370-04), and then centrifuged at full speed (≥13,000×g) for 5 minutes. The cleared supernatant was transferred by pipetting to a DNA Clearance Column Pre-inserted in a 2 mL Collection Tube. The assembled column was centrifuged at 13,000×g for 1 minute, and the flow-through was saved. An equal volume (700 μl) of 70% ethanol was added to the lysate and mixed. The sample was then applied to a HiBind RNA spin column placed into a 2 ml collection tube, which was centrifuged at 10,000×g for 60 seconds at room temperature. RNA Wash Buffer I (250 μl) was added by pipetting directly onto a new HiBind RNA column inserted in a 2 ml collection tube. The assembled column was centrifuged at 10,000×g for 60 seconds. The RNA column was placed into a new 2 ml collection tube. DNase I stock solution is pipetted (75 μl) directly onto the surface of the HiBind RNA resin in each column (Using DNAse Digestion with RNase Free DNase Set (E1091): for each HiBind RNA column, the DNase I stock solution was prepared as followed: E.Z.N.A.® DNase I Digestion Buffer 73.5 μl, RNase Free DNase I (20 Kunitz/μl) 1.5 μl=Total Volume 75 μl). The column with bound RNA was incubated at room temperature (25-30° C.) for 15 minutes. RNA Wash Buffer I (500 μl) was added to the column and placed on a bench top for 2 minutes. After centrifuging at 10,000×g for 60 seconds, discarding the flow-through, 500 μl of RNA Wash Buffer II was added and centrifuged at 10,000×g for 60 seconds. Another 500 μl of RNA Wash Buffer II was added and the column assembly was centrifuged at 10,000×g for 60 seconds. The column was centrifuged for 2 minutes at maximum speed to completely dry the HiBind matrix. The column was placed in a clean 1.5 ml microcentrifuge tube and 40-70 μl of molecular biology grade water is added. […]
RediPlate 96 RiboGreen RNA Quantification Kit (Invitrogen) RediPlate standard curve was prepared by transferring 20 l reconstituted RNA standard to a RediPlate well reconstituted in 180 l RediPlate TE buffer. […]

O=C1NCCN1CC(O)Cn1c2ccc(F)cc2c2cc(F)ccc21 (centres unmarked) [Compound 72, 1-(3-(3,6-difluoro-9H-carbazol-9-yl)-2-hydroxypropyl)imidazolidin-2-one]
Cry2 mRNA in liver (daytime peak) (C57Bl/6J DIO and Balb/c mice): strongly attenuated
Per2 mRNA in liver (C57Bl/6J DIO and Balb/c mice, over 24 hours, vs vehicle): suppressed
circadian pattern of mRNAs for gluconeogenic genes Pckl and G6Pc (C57Bl/6J DIO mice, relative to vehicle): substantially altered
Bmal1 mRNAs in liver (both strains, at ZT8 and 32 hours after ZT0, vs vehicle): substantially increased
Cry1 mRNA in liver (during its peak of expression in the dark period): suppressed
